Laboratory results reported in patent publication US11427548B2 (Arvinas Operations, Inc., priority 2015, dated 2022).
Like-named read-outs stand apart in the source and are kept apart here.

Target: T1, Androgen Receptor (Homo sapiens, UniProt P10275)
T1 construct: endogenous in cells; host or cells: VCaP cells
T1 sequence (P10275 1-920): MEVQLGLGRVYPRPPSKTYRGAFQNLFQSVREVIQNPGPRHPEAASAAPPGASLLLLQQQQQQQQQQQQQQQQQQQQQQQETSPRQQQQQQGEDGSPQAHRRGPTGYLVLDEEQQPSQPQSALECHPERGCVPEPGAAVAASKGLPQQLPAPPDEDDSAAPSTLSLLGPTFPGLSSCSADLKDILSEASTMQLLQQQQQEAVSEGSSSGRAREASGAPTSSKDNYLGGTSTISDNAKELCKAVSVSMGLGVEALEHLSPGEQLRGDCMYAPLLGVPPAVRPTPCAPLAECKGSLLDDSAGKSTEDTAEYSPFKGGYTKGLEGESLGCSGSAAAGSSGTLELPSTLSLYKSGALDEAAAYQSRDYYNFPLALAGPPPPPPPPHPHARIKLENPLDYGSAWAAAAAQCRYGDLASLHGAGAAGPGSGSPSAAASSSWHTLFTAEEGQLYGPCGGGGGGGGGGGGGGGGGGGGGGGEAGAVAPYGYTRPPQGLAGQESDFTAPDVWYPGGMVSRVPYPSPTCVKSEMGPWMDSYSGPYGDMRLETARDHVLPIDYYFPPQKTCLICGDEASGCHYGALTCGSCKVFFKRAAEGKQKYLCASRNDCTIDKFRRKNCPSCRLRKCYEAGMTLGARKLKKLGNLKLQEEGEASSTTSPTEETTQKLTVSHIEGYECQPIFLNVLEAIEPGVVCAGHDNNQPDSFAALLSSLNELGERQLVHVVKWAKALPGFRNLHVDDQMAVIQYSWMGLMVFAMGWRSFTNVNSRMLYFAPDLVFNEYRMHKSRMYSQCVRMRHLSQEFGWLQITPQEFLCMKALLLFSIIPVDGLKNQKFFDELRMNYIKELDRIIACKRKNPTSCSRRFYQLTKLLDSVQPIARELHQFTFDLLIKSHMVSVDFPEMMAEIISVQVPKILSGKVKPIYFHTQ
Assay: Androgen Receptor ELISA assay (PathScan AR ELISA) in VCaP cells: AR degradation, Dmax and DC50
Format: cell-based
Outline: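 After 24 h exposure of VCaP cells (charcoal-stripped serum, 0.1 nM R1881 agonist, 0.1% DMSO) to seven half-log compound concentrations, residual AR in lysates was measured by PathScan ELISA (TMB absorbance, 450 nm). Cells were plated at 30,000/well and grown at least 3 days beforehand.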

[1] = read-out: VCaP DC50; VCaP cells; Table 34
[2] = read-out: VCaP DC50; VCaP cells; Table 36

| SMILES | Dmax (VCaP, read-out: VCaP Dmax (%)) | DC50 [1] | also measured |
| --- | --- | --- | --- |
| CC(C)(C)[C@H](NC(=O)COCCN1CCN(c2ccc(C(=O)N[C@H]3C(C)(C)[C@H](Oc4ccc(C#N)c(Cl)c4)C3(C)C)cn2)CC1)C(=O)N1C[C@H](O)C[C@H]1C(=O)NCc1ccc(C2CCOCC2)cc1 [Example 760, N-((1r,3r)-3-(3-chloro-4-cyanophenxoy)-2,2,4,4-tetramethylcyclobutyl) 6-(4-(2-(2-(((S)-1-((2S,4R)-4-hydroxy-2-((4-(tetrahydro-2H-pyran-4-yl)benzyl)carbamoyl)pyrrolidin-1-yl)-3,3-dimethyl-1-oxobutan-2-yl)amino)-2-oxoethoxy)ethyl)pipera-zin-1-yl)nicotinamide] | – | – | DC50 (VCaP cells; Table 36; read-out: VCaP DC50): > 0.501 µM; Dmax (VCaP, VCaP cells; Table 36; read-out: VCaP Dmax (%)): 26 to 50% |
| Cc1ncsc1-c1ccc(CNC(=O)[C@@H]2C[C@@H](O)CN2C(=O)[C@@H](NC(=O)COCCCCOc2ccc(-c3ccc(N4C(=S)N(c5ccc(C#N)c(C(F)(F)F)c5)C(=O)C4(C)C)c(F)c3)cc2)C(C)(C)C)cc1 [Example 118, (2S,4R)-1-[(2S)-2-(2-{4-[4-(4-{3-[4-cyano-3-(trifluoromethyl)phenyl]-5,5-dimethyl-4-oxo-2-sulfanylideneimidazolidin-1-yl}-3-fluorophenyl)phen-oxy]butoxy}acetamido)-3,3-dimethylbutanoyl]-4-hydroxy-N-{[4-(4-methyl-1,3-thiazol-5-yl)phenyl]methyl}pyrrolidine-2-carboxamide] | > 71% | – | DC50 (read-out: VCaP DC50; concentration that caused 50% Androgen Receptor degradation, VCaP cells (Table 32)): < 0.05 µM |
| Cc1ncsc1-c1ccc(CNC(=O)[C@@H]2C[C@@H](O)CN2C(=O)[C@@H](NC(=O)COc2ccc3cc(COc4ccc(N5C(=S)N(c6ccc(C#N)c(C(F)(F)F)c6)C(=O)C5(C)C)cc4)ccc3c2)C(C)(C)C)cc1 [Example 378] | 51 to 70% | < 0.05 µM | – |
| CC(C)(C)[C@H](NC(=O)COCCCOCCCCCOc1ccc(N2C(=S)N(c3ccc(C#N)c(Cl)c3)C(=O)C2(C)C)cc1)C(=O)N1C[C@H](O)C[C@H]1C(=O)NCc1ccc(-c2cnco2)cc1 [Example 345] | 51 to 70% | < 0.05 µM | – |
| Cc1ncsc1-c1ccc([C@H](C)NC(=O)[C@@H]2C[C@@H](O)CN2C(=O)[C@@H](NC(=O)CN2CCO[C@@H](CN3CCO[C@@H](COc4ccc(N5C(=S)N(c6ccc(C#N)c(C(F)(F)F)c6)C(=O)C5(C)C)cc4)C3)C2)C(C)(C)C)cc1 [Example 667, (2S,4R)-1-((S)-2-(2-((S)-2-(((R)-2-((4-(3-(4-cyano-3-(trifluoromethyl)phenyl)-5,5-dimethyl-4-oxo-2-thioxoimidazolidin-1-yl)phenoxy)methyl)mor-pholino)methyl)mor-pholino)acetamido)-3,3-dimethylbutanoyl)-4-hydroxy-N-((S)-1-(4-(4-methylthiazol-5-yl)phenyl)ethyl)pyrrolidine-2-carboxamide] | < 25% | – | DC50 [2]: > 0.501 µM |
| Cc1ncsc1-c1ccc(CNC(=O)[C@@H]2C[C@@H](O)CN2C(=O)[C@@H](NC(=O)CCN2CCC(OCCOc3ccc(N4C(=S)N(c5ccc(C#N)c(C(F)(F)F)c5)C(=O)C4(C)C)cc3)CC2)C(C)(C)C)cc1 [Example 324] | 26 to 50% | 0.051 to 0.5 µM | – |
| Cc1ncsc1-c1ccc([C@H](C)NC(=O)[C@@H]2C[C@@H](O)CN2C(=O)[C@@H](C(C)C)n2cc(-c3ccnc(N4CC[C@H](Oc5ccc(N6C(=S)N(c7ccc(C#N)c(C(F)(F)F)c7)C(=O)C6(C)C)cc5)C4)c3)cn2)cc1 [Example 610, (2S,4R)-1-((R)-2-(4-(2-((S)-3-(4-(3-(4-cyano-3-(trifluoromethyl)phenyl)-5,5-dimethyl-4-oxo-2-thioxoimidazolidin-1-yl)phenoxy)pyrrolidin-1-yl)pyridin-4-yl)-1H-pyrazol-1-yl)-3-methylbutanoyl)-4-hydroxy-N-((S)-1-(4-(4-methylthiazol-5-yl)phenyl)ethyl)pyrroli-dine-2-carboxamide] | < 25% | – | DC50 [2]: > 0.501 µM |
